pEC50, pIC50: −log10 of the molar value.
Experiments:
[1] = test system: HIV-1 laboratory strain, NL4-3; assay: MT-4 cytoprotection assay; format: cell-based; settings: Human immunodeficiency virus 1, NL43, MT4, 96 h; MT-4 cells, four days incubation, WST-1 readout; read-out: MT4 EC50
Outline: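 MT-4 cells mock- or batch-infected with NL4-3 (MOI 0.0005) for 2 h, washed, then cultured 4 days with increasing compound concentrations. Viability read by WST-1 tetrazolium reduction: cytoprotection in infected cells, toxicity in mock-infected cells.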

HIV-1NL4-3 = assay: P4-MAGI assay; format: cell-based; settings: Human immunodeficiency virus 1, 24 h, P4 cells, 24 hour incubation, β-galactosidase expression; read-out: P4-MAGI IC50
Outline: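 HeLa-derived CD4+ P4 cells carrying an LTR-driven lacZ were infected with HIV-1NL4-3 at MOI 1 with DEAE-Dextran, then compound added in increasing concentrations right after virus; infection reported as Tat-induced β-galactosidase. TC50 measured by WST-1 in mock-infected cells.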

Compound | pEC50 [1] | pIC50 (HIV-1NL4-3)
C=C(C)[C@@H]1CC[C@]2(C(=O)NCCc3cccc(C(=O)NCc4ccc(C(=O)N[C@H](CCC(=O)OC)C(=O)OC)cn4)c3)CC[C@]3(C)C(CCC4[C@@]5(C)CC[C@H](O)C(C)(C)C5CC[C@]43C)C12 (stereo partly drawn) [Example 223] | 7.68 | 7.66
C=C(C)[C@@H]1CC[C@]2(C(=O)NCCc3cccc(C(=O)NCc4ccc(C(=O)N[C@H](CCC(=O)O)C(=O)O)cn4)c3)CC[C@]3(C)C(CCC4[C@@]5(C)CC[C@H](O)C(C)(C)C5CC[C@]43C)C12 (stereo partly drawn) [Example 224] | 6.59 | 7.45
C=C(C)[C@@H]1CC[C@]2(C(=O)NCCc3cccc(C(=O)NCc4ccc(C(=O)NC(C(=O)O)C(N)C(=O)O)cn4)c3)CC[C@]3(C)C(CCC4[C@@]5(C)CC[C@H](O)C(C)(C)C5CC[C@]43C)C12 (stereo partly drawn) [Example 225] | 7.28 | 7.41
C=C(C)[C@@H]1CC[C@]2(C(=O)NCCc3cccc(C(=O)NCc4ccc(C(=O)N[C@H](C(=O)O)C(C)C)cn4)c3)CC[C@]3(C)C(CCC4[C@@]5(C)CC[C@H](O)C(C)(C)C5CC[C@]43C)C12 (stereo partly drawn) [Example 226] | 6.99 | 7.93
C=C(C)[C@@H]1CC[C@]2(C(=O)NCCc3cccc(C(=O)NCc4ncccc4C(=O)OC)c3)CC[C@]3(C)C(CCC4[C@@]5(C)CC[C@H](O)C(C)(C)C5CC[C@]43C)C12 (stereo partly drawn) [Example 227] | 6.12 | 7.17
C=C(C)[C@@H]1CC[C@]2(C(=O)NCCc3cccc(C(=O)NCc4cccnc4C(=O)OC)c3)CC[C@]3(C)C(CCC4[C@@]5(C)CC[C@H](O)C(C)(C)C5CC[C@]43C)C12 (stereo partly drawn) [Example 229] | 7.36 | 8.15
C=C(C)[C@@H]1CC[C@]2(C(=O)NCCc3cccc(C(=O)NCc4cccnc4C(=O)O)c3)CC[C@]3(C)C(CCC4[C@@]5(C)CC[C@H](O)C(C)(C)C5CC[C@]43C)C12 (stereo partly drawn) [Example 230] | 6.52 | 7.25
C=C(C)[C@@H]1CC[C@]2(C(=O)NCCc3cccc(C(=O)NCc4ccc(OCCCn5ccnc5)cc4)c3)CC[C@]3(C)C(CCC4[C@@]5(C)CC[C@H](O)C(C)(C)C5CC[C@]43C)C12 (stereo partly drawn) [Example 231] | 7.73 | 7.85
C=C(C)[C@@H]1CC[C@]2(C(=O)NCCc3cccc(C(=O)NCc4ccc(OCCCO)cc4)c3)CC[C@]3(C)C(CCC4[C@@]5(C)CC[C@H](O)C(C)(C)C5CC[C@]43C)C12 (stereo partly drawn) [Example 232] | 7.15 | 7.41
C=C(C)[C@@H]1CC[C@]2(C(=O)NCCc3cccc(C(=O)NCc4ccc(OCCCn5cncc5C(=O)OC)cc4)c3)CC[C@]3(C)C(CCC4[C@@]5(C)CC[C@H](O)C(C)(C)C5CC[C@]43C)C12 (stereo partly drawn) [Example 234] | 7.57 | 7.73
C=C(C)[C@@H]1CC[C@]2(C(=O)NCCc3cccc(C(=O)NCc4ccc(OCCCn5cnc(C(=O)OC)c5)cc4)c3)CC[C@]3(C)C(CCC4[C@@]5(C)CC[C@H](O)C(C)(C)C5CC[C@]43C)C12 (stereo partly drawn) [Example 235] | 7.18 | 7.74
C=C(C)[C@@H]1CC[C@]2(C(=O)NCCc3cccc(C(=O)NCc4ccc(OCCCN5CCN(S(=O)(=O)CC)CC5)cc4)c3)CC[C@]3(C)C(CCC4[C@@]5(C)CC[C@H](O)C(C)(C)C5CC[C@]43C)C12 (stereo partly drawn) [Example 236] | 7.52 | 7.70
C=C(C)[C@@H]1CC[C@]2(C(=O)NCCc3cccc(C(=O)NCc4ccc(O)c(C(=O)OC)c4)c3)CC[C@]3(C)C(CCC4[C@@]5(C)CC[C@H](O)C(C)(C)C5CC[C@]43C)C12 (stereo partly drawn) [Example 239] | 6.98 | 7.49
C=C(C)[C@@H]1CC[C@]2(C(=O)NCCc3cccc(C(=O)NCc4ccc(O)c(C(=O)O)c4)c3)CC[C@]3(C)C(CCC4[C@@]5(C)CC[C@H](O)C(C)(C)C5CC[C@]43C)C12 (stereo partly drawn) [Example 240] | 7.48 | 7.72
C=C(C)[C@@H]1CC[C@]2(C(=O)NCCc3cccc(C(=O)NCc4ccc(OCCCN5CC(C)NC(C)C5)c(C(=O)O)c4)c3)CC[C@]3(C)C(CCC4[C@@]5(C)CC[C@H](O)C(C)(C)C5CC[C@]43C)C12 (stereo partly drawn) [Example 241] | 7.65 | 8.30
C=C(C)[C@@H]1CC[C@]2(C(=O)NCCc3cccc(C(=O)NCc4ccc(OCCCn5ccnc5)c(C(=O)O)c4)c3)CC[C@]3(C)C(CCC4[C@@]5(C)CC[C@H](O)C(C)(C)C5CC[C@]43C)C12 (stereo partly drawn) [Example 242] | 7.04 | 7.38
C=C(C)[C@@H]1CC[C@]2(C(=O)NCCc3cccc(C(=O)NCc4ccc(OCCCN5CCN(S(=O)(=O)CC)CC5)c(C(=O)O)c4)c3)CC[C@]3(C)C(CCC4[C@@]5(C)CC[C@H](O)C(C)(C)C5CC[C@]43C)C12 (stereo partly drawn) [Example 243] | 7.59 | 7.76

Compound | pEC50 [1] | pIC50 (HIV-1NL4-3)
C=C(C)[C@@H]1CC[C@]2(C(=O)NCCc3cccc(C(=O)NCc4ccc(OCCCN5CCNCC5)c(C(=O)O)c4)c3)CC[C@]3(C)C(CCC4[C@@]5(C)CC[C@H](O)C(C)(C)C5CC[C@]43C)C12 (stereo partly drawn) [Example 245] | 7.46 | 7.56
C=C(C)[C@@H]1CC[C@]2(C(=O)NCCc3cccc(C(=O)NCc4ccc(OCCCn5cncc5C(=O)O)c(C(=O)O)c4)c3)CC[C@]3(C)C(CCC4[C@@]5(C)CC[C@H](O)C(C)(C)C5CC[C@]43C)C12 (stereo partly drawn) [Example 246] | 6.63 | 7.24
C=C(C)[C@@H]1CC[C@]2(C(=O)NCCc3cccc(S(=O)(=O)NCc4ccc(C(=O)OC)cc4)c3)CC[C@]3(C)C(CCC4[C@@]5(C)CC[C@H](O)C(C)(C)C5CC[C@]43C)C12 (stereo partly drawn) [Example 250] | 6.23 | 6.97
C=C(C)[C@@H]1CC[C@]2(C(=O)NCCc3cccc(S(=O)(=O)NCc4ccc(C(=O)O)cc4)c3)CC[C@]3(C)C(CCC4[C@@]5(C)CC[C@H](O)C(C)(C)C5CC[C@]43C)C12 (stereo partly drawn) [Example 251] | 6.59 | 7.17
C=C(C)[C@@H]1CC[C@]2(C(=O)NCCc3cccc(C(=O)NCc4ccc(C#N)cn4)c3)CC[C@]3(C)C(CCC4[C@@]5(C)CC[C@H](O)C(C)(C)C5CC[C@]43C)C12 (stereo partly drawn) [Example 252] | 7.85 | 7.60
C=C(C)[C@@H]1CC[C@]2(C(=O)NCCc3cccc(C(=O)NCc4ccc(-c5nn[nH]n5)cn4)c3)CC[C@]3(C)C(CCC4[C@@]5(C)CC[C@H](O)C(C)(C)C5CC[C@]43C)C12 (stereo partly drawn) [Example 253] | 8.46 | 7.97
C=C(C)[C@@H]1CC[C@]2(C(=O)NCCc3cccc(-c4nnc(-c5ccc(C(=O)O)cn5)[nH]4)c3)CC[C@]3(C)C(CCC4[C@@]5(C)CC[C@H](O)C(C)(C)C5CC[C@]43C)C12 (stereo partly drawn) [Example 254] | 6.45 | 7.16
C=C(C)[C@@H]1CC[C@]2(C(=O)NCCc3cccc(C(=O)NCC(O)CO)c3)CC[C@]3(C)C(CCC4[C@@]5(C)CC[C@H](O)C(C)(C)C5CC[C@]43C)C12 (stereo partly drawn) [Example 256] | 6.69 | 7.30
C=C(C)[C@@H]1CC[C@]2(C(=O)NCCc3cccc(C(=O)NCC4COC(C(=O)O)CO4)c3)CC[C@]3(C)C(CCC4[C@@]5(C)CC[C@H](O)C(C)(C)C5CC[C@]43C)C12 (stereo partly drawn) [Example 257] | 6.48 | 7.27
C=C(C)[C@@H]1CC[C@]2(C(=O)NCCc3cccc(C(=O)NCC4COCC(C(=O)O)O4)c3)CC[C@]3(C)C(CCC4[C@@]5(C)CC[C@H](O)C(C)(C)C5CC[C@]43C)C12 (stereo partly drawn) [Example 258] | 6.01 | 6.95
C=C(C)[C@@H]1CC[C@]2(C(=O)NCCc3ccc(F)c(C(=O)NCc4ccc(C(=O)OC)cn4)c3)CC[C@]3(C)C(CCC4[C@@]5(C)CC[C@H](O)C(C)(C)C5CC[C@]43C)C12 (stereo partly drawn) [Example 261] | 8.05 | 7.84
C=C(C)[C@@H]1CC[C@]2(C(=O)NCCc3ccc(F)c(C(=O)NCc4ccc(C(=O)O)cn4)c3)CC[C@]3(C)C(CCC4[C@@]5(C)CC[C@H](O)C(C)(C)C5CC[C@]43C)C12 (stereo partly drawn) [Example 262] | 8.14 | 7.94
CC(=O)[C@@H]1CC[C@]2(C(=O)NCCc3cccc(C(=O)NCc4ccc(C(=O)O)cc4)c3)CC[C@]3(C)C(CCC4[C@@]5(C)CC[C@H](O)C(C)(C)C5CC[C@]43C)C12 (stereo partly drawn) [Example 264] | 6.79 | 7.53
C=C(CN1CCCC1)[C@@H]1CC[C@]2(C(=O)NCCc3cccc(C(=O)NCc4ccc(C(=O)O)cn4)c3)CC[C@]3(C)C(CCC4[C@@]5(C)CC[C@H](O)C(C)(C)C5CC[C@]43C)C12 (stereo partly drawn) [Example 265] | 6.76 | 7.24
C=C(COC)[C@@H]1CC[C@]2(C(=O)NCCc3cccc(C(=O)NCc4ccc(C(=O)O)cn4)c3)CC[C@]3(C)C(CCC4[C@@]5(C)CC[C@H](O)C(C)(C)C5CC[C@]43C)C12 (stereo partly drawn) [Example 266] | 7.62 | 8.08
C=C(CSCCO)[C@@H]1CC[C@]2(C(=O)NCCc3cccc(C(=O)NCc4ccc(C(=O)O)cn4)c3)CC[C@]3(C)C(CCC4[C@@]5(C)CC[C@H](O)C(C)(C)C5CC[C@]43C)C12 (stereo partly drawn) [Example 267] | 7.34 | 7.76

Reference: US20090275583A1, “ANTIVIRAL COMPOUNDS AND USE THEREOF” (Myriad Genetics, Incorporated, priority 2006, published 2009)
